Values of other authors, collected in patent publication EP4360619A1, “DOSAGE FORM FOR INTRA-ARTICULAR INJECTION […] AN […] IN THE TREATMENT OF CRYSTAL-AND NON-CRYSTAL […] IN[…]” (PK MED, priority 2022, dated 2024).

Details: literature (E.Niel et al)

For `COc1cc2c(c(OC)c1OC)-c1ccc(OC)c(=O)cc1[C@@H](NC(C)=O)CC2` [colchicine, N-[(7S)-1,2,3,10-tetramethoxy-9-oxo-6,7-dihydro-5H-benzo[a]heptalen-7-yl]acetamide], the lethal dose is listed as 0.8 mg/kg and the toxicity limit is listed as 0.1 mg/kg.
